From PubChem BioAssay (NCI)
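Step 1: Grow cells in 96-well plates. Step 2: Expose to compound for 48 hours at 5 concentrations. Step 3: Interpolate endpoints linearly; if unreached, use highest concentration. TGI is the concentration that stops growth completely.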

Experiments:
Assay in all cases: NCI anticancer screen, dose series, 48 h
PC-3 prostate = test system: PC-3 prostate
A549 NSCLC = test system: A549 NSCLC
HOP-62 NSCLC = test system: HOP-62 NSCLC
UACC-62 melanoma = test system: UACC-62 melanoma
MDA-N = test system: MDA-N
MDA-MB-435 = test system: MDA-MB-435
IGROV1 ovarian = test system: IGROV1 ovarian
NCI-H522 lung = test system: NCI-H522 lung
SN12C renal = test system: SN12C renal
BT-549 breast = test system: BT-549 breast
HOP-92 NSCLC = test system: HOP-92 NSCLC
CCRF-CEM leukemia = test system: CCRF-CEM leukemia
RXF 393 renal = test system: RXF 393 renal
MOLT-4 leukemia = test system: MOLT-4 leukemia
SW-620 colon = test system: SW-620 colon
DU-145 prostate = test system: DU-145 prostate
OVCAR-5 ovarian = test system: OVCAR-5 ovarian
M14 melanoma = test system: M14 melanoma
K-562 leukemia = test system: K-562 leukemia
T-47D breast = test system: T-47D breast
UO-31 renal = test system: UO-31 renal
NCI-H460 lung = test system: NCI-H460 lung
U251 CNS = test system: U251 CNS
HS 578T breast = test system: HS 578T breast
HT29 colon = test system: HT29 colon
SNB-75 CNS = test system: SNB-75 CNS
HCC-2998 colon = test system: HCC-2998 colon
SK-MEL-28 melanoma = test system: SK-MEL-28 melanoma
A498 renal = test system: A498 renal
OVCAR-4 ovarian = test system: OVCAR-4 ovarian
COLO 205 colon = test system: COLO 205 colon
EKVX NSCLC = test system: EKVX NSCLC
SNB-19 CNS = test system: SNB-19 CNS
786-0 renal = test system: 786-0 renal
ACHN renal = test system: ACHN renal
HL-60(TB) leukemia = test system: HL-60(TB) leukemia
OVCAR-8 ovarian = test system: OVCAR-8 ovarian
TK-10 renal = test system: TK-10 renal
CAKI-1 renal = test system: CAKI-1 renal
SK-MEL-5 melanoma = test system: SK-MEL-5 melanoma
SR leukemia = test system: SR leukemia
MDA-MB-231 breast = test system: MDA-MB-231 breast
SF-295 CNS = test system: SF-295 CNS
HCT-116 colon = test system: HCT-116 colon
SF-539 CNS = test system: SF-539 CNS
NCI-H226 lung = test system: NCI-H226 lung
SF-268 CNS = test system: SF-268 CNS
OVCAR-3 ovarian = test system: OVCAR-3 ovarian
MCF7 breast = test system: MCF7 breast
NCI-H23 lung = test system: NCI-H23 lung
KM12 colon = test system: KM12 colon
MALME-3M melanoma = test system: MALME-3M melanoma
UACC-257 melanoma = test system: UACC-257 melanoma
SK-OV-3 ovarian = test system: SK-OV-3 ovarian

CC1(C)C2CCC1(C)C(NC(=O)COCCOCC(N)=O)C2 (centres undefined)
TGI (PC-3 prostate): > 100 µM
TGI (A549 NSCLC): > 100 µM
TGI (HOP-62 NSCLC): > 100 µM
TGI (UACC-62 melanoma): > 100 µM
TGI (MDA-N): > 100 µM
TGI (MDA-MB-435): > 100 µM
TGI (IGROV1 ovarian): > 100 µM
TGI (NCI-H522 lung): > 100 µM
TGI (SN12C renal): > 100 µM
TGI (BT-549 breast): > 100 µM
TGI (HOP-92 NSCLC): > 100 µM
TGI (CCRF-CEM leukemia): > 100 µM
TGI (RXF 393 renal): > 100 µM
TGI (MOLT-4 leukemia): > 100 µM
TGI (SW-620 colon): > 100 µM
TGI (DU-145 prostate): > 100 µM
TGI (OVCAR-5 ovarian): > 100 µM
TGI (M14 melanoma): > 100 µM
TGI (K-562 leukemia): > 100 µM
TGI (T-47D breast): > 100 µM
TGI (UO-31 renal): > 100 µM
TGI (NCI-H460 lung): > 100 µM
TGI (U251 CNS): > 100 µM
TGI (HS 578T breast): > 100 µM
TGI (HT29 colon): > 100 µM
TGI (SNB-75 CNS): > 100 µM
TGI (HCC-2998 colon): > 100 µM
TGI (SK-MEL-28 melanoma): > 100 µM
TGI (A498 renal): > 100 µM
TGI (OVCAR-4 ovarian): > 100 µM
TGI (COLO 205 colon): > 100 µM
TGI (EKVX NSCLC): > 100 µM
TGI (SNB-19 CNS): > 100 µM
TGI (786-0 renal): > 100 µM
TGI (ACHN renal): > 100 µM
TGI (HL-60(TB) leukemia): > 100 µM
TGI (OVCAR-8 ovarian): > 100 µM
TGI (TK-10 renal): > 100 µM
TGI (CAKI-1 renal): > 100 µM
TGI (SK-MEL-5 melanoma): > 100 µM
TGI (SR leukemia): 85.1 µM
TGI (MDA-MB-231 breast): > 100 µM
TGI (SF-295 CNS): > 100 µM
TGI (HCT-116 colon): > 100 µM
TGI (SF-539 CNS): > 100 µM
TGI (NCI-H226 lung): > 100 µM
TGI (SF-268 CNS): > 100 µM
TGI (OVCAR-3 ovarian): > 100 µM
TGI (MCF7 breast): > 100 µM
TGI (NCI-H23 lung): > 100 µM
TGI (KM12 colon): > 100 µM
TGI (MALME-3M melanoma): > 100 µM
TGI (UACC-257 melanoma): > 100 µM
TGI (SK-OV-3 ovarian): > 100 µM
